{"source": "paper PMC8371902", "about": "“Phase 1 study of M2698, a p70S6K/AKT dual inhibitor, in patients with advanced cancer” (Journal of Hematology & Oncology, 2021)", "tested_on": "patients with advanced metastatic cancer", "from_the_text": "In this phase 1 study, dose escalation was followed by expansion cohorts of once-daily, oral M2698 in continuous 21-day cycles. Primary objectives were to determine the maximum tolerated dose (MTD), dose-limiting toxicities (DLTs), and recommended phase 2 dose (RP2D). Secondary objectives were to assess safety and tolerability, pharmacokinetics (PK, including food effect) and antitumor activity. Pharmacodynamic biomarker assessments were exploratory. Treatment was discontinued if there was disease progression, toxicity or consent withdrawal.\nIn Part 1, M2698 monotherapy was investigated in a dose escalation with a food effect cohort. In Part 2, M2698 was investigated as monotherapy (expansion cohort) to further characterize safety, tolerability and pharmacokinetics, and assess antitumor activity in PAM + patients without confounding markers (exploratory).\nDose escalation analysis included all patients who experienced a DLT and those who received ≥ 80% of planned M2698 doses in cycle 1 without experiencing a DLT. Safety analysis included all patients who received ≥ 1 dose of M2698. PK analysis included all patients who received ≥ 1 dose of M2698 and had measurable plasma concentrations. Dose proportionality was tested using the power model (linear regression approach on the log -transformed scale).", "note": "Where two headings read alike, the source gives them in different places.", "data": [{"smiles": "NC(=O)c1cccc2c(N[C@H](CN3CCC3)c3ccc(Cl)c(C(F)(F)F)c3)ncnc12", "note": "[M2698]", "values": [{"measurement": "M2698-related TEAE: Pruritus generalised", "setting": "240 mg n=17", "value": 0}, {"measurement": "M2698-related TEAE: Psychiatric disorders", "setting": "240 mg n=17", "value": 3}, {"measurement": "M2698-related TEAE: Rash", "setting": "240 mg n=17", "value": 0}, {"measurement": "M2698-related TEAE: Rash maculo-papular", "setting": "240 mg n=17", "value": 0}, {"measurement": "M2698-related TEAE: Skin and subcutaneous tissue disorders", "setting": "240 mg n=17", "value": 0}, {"measurement": "M2698-related TEAE: Subjects with at least one event", "setting": "240 mg n=17", "value": 9}, {"measurement": "M2698-related TEAE: Transaminases increased", "setting": "240 mg n=17", "value": 0}, {"measurement": "M2698-related TEAE: Tremor", "setting": "240 mg n=17", "value": 1}, {"measurement": "M2698-related TEAE: Vision blurred", "setting": "240 mg n=17", "value": 0}, {"measurement": "M2698-related TEAE: Vomiting", "setting": "240 mg n=17", "value": 1}, {"measurement": "M2698-related TEAE: White blood cell count decreased", "setting": "240 mg n=17", "value": 0}, {"measurement": "M2698-related TEAE: Abnormal dreams", "setting": "320 mg n=12", "value": 2}, {"measurement": "M2698-related TEAE: Affect lability", "setting": "320 mg n=12", "value": 0}, {"measurement": "M2698-related TEAE: Alanine aminotransferase increased", "setting": "320 mg n=12", "value": 0}, {"measurement": "M2698-related TEAE: Amylase increased", "setting": "320 mg n=12", "value": 0}, {"measurement": "M2698-related TEAE: Anaemia", "setting": "320 mg n=12", "value": 1}, {"measurement": "M2698-related TEAE: Angina pectoris", "setting": "320 mg n=12", "value": 0}, {"measurement": "M2698-related TEAE: Anxiety", "setting": "320 mg n=12", "value": 1}, {"measurement": "M2698-related TEAE: Aphasia", "setting": "320 mg n=12", "value": 1}, {"measurement": "M2698-related TEAE: Ataxia", "setting": "320 mg n=12", "value": 1}, {"measurement": "M2698-related TEAE: Blood and lymphatic system disorders", "setting": "320 mg n=12", "value": 1}, {"measurement": "M2698-related TEAE: Blood creatine phosphokinase increased", "setting": "320 mg n=12", "value": 0}, {"measurement": "M2698-related TEAE: Blood creatinine increased", "setting": "320 mg n=12", "value": 1}, {"measurement": "M2698-related TEAE: Cardiac disorders", "setting": "320 mg n=12", "value": 0}, {"measurement": "M2698-related TEAE: Cognitive disorder", "setting": "320 mg n=12", "value": 0}, {"measurement": "M2698-related TEAE: Constipation", "setting": "320 mg n=12", "value": 2}, {"measurement": "M2698-related TEAE: Decreased appetite", "setting": "320 mg n=12", "value": 1}, {"measurement": "M2698-related TEAE: Delusion", "setting": "320 mg n=12", "value": 1}, {"measurement": "M2698-related TEAE: Depression", "setting": "320 mg n=12", "value": 1}, {"measurement": "M2698-related TEAE: Diarrhoea", "setting": "320 mg n=12", "value": 4}, {"measurement": "M2698-related TEAE: Diarrhoea haemorrhagic", "setting": "320 mg n=12", "value": 0}, {"measurement": "M2698-related TEAE: Dizziness", "setting": "320 mg n=12", "value": 0}, {"measurement": "M2698-related TEAE: Dry eye", "setting": "320 mg n=12", "value": 0}, {"measurement": "M2698-related TEAE: Dry mouth", "setting": "320 mg n=12", "value": 0}, {"measurement": "M2698-related TEAE: Dysgeusia", "setting": "320 mg n=12", "value": 0}, {"measurement": "M2698-related TEAE: Dyspepsia", "setting": "320 mg n=12", "value": 1}, {"measurement": "M2698-related TEAE: Dysphagia", "setting": "320 mg n=12", "value": 0}, {"measurement": "M2698-related TEAE: Energy increased", "setting": "320 mg n=12", "value": 0}, {"measurement": "M2698-related TEAE: Erythema", "setting": "320 mg n=12", "value": 0}, {"measurement": "M2698-related TEAE: Euphoric mood", "setting": "320 mg n=12", "value": 0}, {"measurement": "M2698-related TEAE: Eye disorders", "setting": "320 mg n=12", "value": 0}, {"measurement": "M2698-related TEAE: Fatigue", "setting": "320 mg n=12", "value": 1}, {"measurement": "M2698-related TEAE: Gamma-glutamyltransferase increased", "setting": "320 mg n=12", "value": 0}, {"measurement": "M2698-related TEAE: Gastrointestinal disorders", "setting": "320 mg n=12", "value": 8}, {"measurement": "M2698-related TEAE: Gastrooesophageal reflux disease", "setting": "320 mg n=12", "value": 0}, {"measurement": "M2698-related TEAE: General disorders and administration site conditions", "setting": "320 mg n=12", "value": 2}, {"measurement": "M2698-related TEAE: Headache", "setting": "320 mg n=12", "value": 0}, {"measurement": "M2698-related TEAE: Hyperhidrosis", "setting": "320 mg n=12", "value": 1}, {"measurement": "M2698-related TEAE: Hypokalaemia", "setting": "320 mg n=12", "value": 1}, {"measurement": "M2698-related TEAE: Hypomagnesaemia", "setting": "320 mg n=12", "value": 1}, {"measurement": "M2698-related TEAE: Insomnia", "setting": "320 mg n=12", "value": 1}, {"measurement": "M2698-related TEAE: Investigations", "setting": "320 mg n=12", "value": 1}, {"measurement": "M2698-related TEAE: Lipase increased", "setting": "320 mg n=12", "value": 0}, {"measurement": "M2698-related TEAE: Lymphopenia", "setting": "320 mg n=12", "value": 0}, {"measurement": "M2698-related TEAE: Metabolism and nutrition disorders", "setting": "320 mg n=12", "value": 2}, {"measurement": "M2698-related TEAE: Mucosal inflammation", "setting": "320 mg n=12", "value": 1}, {"measurement": "M2698-related TEAE: Nausea", "setting": "320 mg n=12", "value": 6}, {"measurement": "M2698-related TEAE: Nervous system disorders", "setting": "320 mg n=12", "value": 4}, {"measurement": "M2698-related TEAE: Nightmare", "setting": "320 mg n=12", "value": 0}, {"measurement": "M2698-related TEAE: Onychomadesis", "setting": "320 mg n=12", "value": 0}, {"measurement": "M2698-related TEAE: Paranoia", "setting": "320 mg n=12", "value": 1}, {"measurement": "M2698-related TEAE: Photosensitivity reaction", "setting": "320 mg n=12", "value": 1}, {"measurement": "M2698-related TEAE: Posterior reversible encephalopathy syndrome", "setting": "320 mg n=12", "value": 0}, {"measurement": "M2698-related TEAE: Pruritus generalised", "setting": "320 mg n=12", "value": 1}, {"measurement": "M2698-related TEAE: Psychiatric disorders", "setting": "320 mg n=12", "value": 3}, {"measurement": "M2698-related TEAE: Rash", "setting": "320 mg n=12", "value": 0}, {"measurement": "M2698-related TEAE: Rash maculo-papular", "setting": "320 mg n=12", "value": 0}, {"measurement": "M2698-related TEAE: Skin and subcutaneous tissue disorders", "setting": "320 mg n=12", "value": 3}, {"measurement": "M2698-related TEAE: Subjects with at least one event", "setting": "320 mg n=12", "value": 9}, {"measurement": "M2698-related TEAE: Transaminases increased", "setting": "320 mg n=12", "value": 0}, {"measurement": "M2698-related TEAE: Tremor", "setting": "320 mg n=12", "value": 3}, {"measurement": "M2698-related TEAE: Vision blurred", "setting": "320 mg n=12", "value": 0}, {"measurement": "M2698-related TEAE: Vomiting", "setting": "320 mg n=12", "value": 0}, {"measurement": "M2698-related TEAE: White blood cell count decreased", "setting": "320 mg n=12", "value": 0}, {"measurement": "M2698-related TEAE: Abnormal dreams", "setting": "380 mg n=4", "value": 0}, {"measurement": "M2698-related TEAE: Affect lability", "setting": "380 mg n=4", "value": 0}, {"measurement": "M2698-related TEAE: Alanine aminotransferase increased", "setting": "380 mg n=4", "value": 0}, {"measurement": "M2698-related TEAE: Amylase increased", "setting": "380 mg n=4", "value": 0}, {"measurement": "M2698-related TEAE: Anaemia", "setting": "380 mg n=4", "value": 0}, {"measurement": "M2698-related TEAE: Angina pectoris", "setting": "380 mg n=4", "value": 0}, {"measurement": "M2698-related TEAE: Anxiety", "setting": "380 mg n=4", "value": 0}, {"measurement": "M2698-related TEAE: Aphasia", "setting": "380 mg n=4", "value": 0}, {"measurement": "M2698-related TEAE: Ataxia", "setting": "380 mg n=4", "value": 0}, {"measurement": "M2698-related TEAE: Blood and lymphatic system disorders", "setting": "380 mg n=4", "value": 0}, {"measurement": "M2698-related TEAE: Blood creatine phosphokinase increased", "setting": "380 mg n=4", "value": 1}, {"measurement": "M2698-related TEAE: Blood creatinine increased", "setting": "380 mg n=4", "value": 0}, {"measurement": "M2698-related TEAE: Cardiac disorders", "setting": "380 mg n=4", "value": 0}, {"measurement": "M2698-related TEAE: Cognitive disorder", "setting": "380 mg n=4", "value": 0}, {"measurement": "M2698-related TEAE: Constipation", "setting": "380 mg n=4", "value": 0}, {"measurement": "M2698-related TEAE: Decreased appetite", "setting": "380 mg n=4", "value": 0}, {"measurement": "M2698-related TEAE: Delusion", "setting": "380 mg n=4", "value": 0}, {"measurement": "M2698-related TEAE: Depression", "setting": "380 mg n=4", "value": 0}, {"measurement": "M2698-related TEAE: Diarrhoea", "setting": "380 mg n=4", "value": 0}, {"measurement": "M2698-related TEAE: Diarrhoea haemorrhagic", "setting": "380 mg n=4", "value": 1}, {"measurement": "M2698-related TEAE: Dizziness", "setting": "380 mg n=4", "value": 0}, {"measurement": "M2698-related TEAE: Dry eye", "setting": "380 mg n=4", "value": 0}, {"measurement": "M2698-related TEAE: Dry mouth", "setting": "380 mg n=4", "value": 0}, {"measurement": "M2698-related TEAE: Dysgeusia", "setting": "380 mg n=4", "value": 0}, {"measurement": "M2698-related TEAE: Dyspepsia", "setting": "380 mg n=4", "value": 0}]}]}
